From patent US11033539B2, “Compounds of formulas (VII), (VIII), (IX), (XI), (XII), (XIII), and (XIV) as muscarinic receptor 4(M4) antagonists for treating neurological diseases” (Neurocrine Biosciences, Inc., priority 2015, dated 2021)

Key:
human M4 receptor = human M4 receptor (Homo sapiens (Human), UniProt P08173); test: Radioligand (tritiated N-methylscopolamine) binding assay, M4; settings: Ki against the M4 receptor; membranes from CHO cells expressing human M4; tritiated N-methylscopolamine 1.5 nM; read-out: Ki
Chain of human M4 receptor (P08173 whole entry): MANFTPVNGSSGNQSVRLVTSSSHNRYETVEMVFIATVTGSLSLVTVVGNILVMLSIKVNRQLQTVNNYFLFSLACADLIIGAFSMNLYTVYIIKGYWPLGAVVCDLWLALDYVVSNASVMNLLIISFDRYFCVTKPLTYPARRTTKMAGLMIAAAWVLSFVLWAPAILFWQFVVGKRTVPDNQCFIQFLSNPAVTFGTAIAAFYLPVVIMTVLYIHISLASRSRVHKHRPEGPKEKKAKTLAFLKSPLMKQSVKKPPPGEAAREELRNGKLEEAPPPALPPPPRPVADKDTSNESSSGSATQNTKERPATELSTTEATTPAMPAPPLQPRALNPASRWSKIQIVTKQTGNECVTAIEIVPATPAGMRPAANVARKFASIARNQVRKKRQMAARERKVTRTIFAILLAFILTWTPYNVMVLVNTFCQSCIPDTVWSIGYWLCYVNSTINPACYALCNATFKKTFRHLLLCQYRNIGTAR
Method in brief: (§1)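 Inhibition of radioligand binding gave Ki. The assay used recombinant CHO membranes, 1.5 nM tracer, a 90 min/37 °C incubation and pH 7.4 buffer.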

human M3 receptor = human M3 receptor (Homo sapiens (Human), UniProt P20309); test: Radioligand (tritiated N-methylscopolamine) binding assay, M3; settings: CHO cell membranes expressing human M3; 1.5 nM tritiated N-methylscopolamine; 90 min, 37° C.; read-out: Ki against M3 receptor (Table 21, M3)
Chain of human M3 receptor (P20309 whole entry): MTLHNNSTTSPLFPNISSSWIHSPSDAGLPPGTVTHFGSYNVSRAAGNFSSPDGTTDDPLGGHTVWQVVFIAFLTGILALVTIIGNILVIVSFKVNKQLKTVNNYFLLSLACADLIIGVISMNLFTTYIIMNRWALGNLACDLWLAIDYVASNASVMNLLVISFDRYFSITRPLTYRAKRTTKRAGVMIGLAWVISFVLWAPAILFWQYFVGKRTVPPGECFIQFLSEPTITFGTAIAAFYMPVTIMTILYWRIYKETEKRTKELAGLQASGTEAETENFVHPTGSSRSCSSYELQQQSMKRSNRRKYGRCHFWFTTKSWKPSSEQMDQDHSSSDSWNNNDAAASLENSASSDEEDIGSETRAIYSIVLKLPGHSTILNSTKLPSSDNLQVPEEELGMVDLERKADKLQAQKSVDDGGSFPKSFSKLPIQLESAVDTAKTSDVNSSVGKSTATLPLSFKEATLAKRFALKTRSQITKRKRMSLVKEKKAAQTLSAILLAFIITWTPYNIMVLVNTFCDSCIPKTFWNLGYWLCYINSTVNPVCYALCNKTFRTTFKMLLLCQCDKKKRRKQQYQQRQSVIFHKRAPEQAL
Method in brief: as §1

human M1 receptor = human M1 receptor (Homo sapiens (Human), UniProt P11229); test: Radioligand (tritiated N-methylscopolamine) binding assay, M1; settings: CHO cell membranes expressing human M1; 1.5 nM tritiated N-methylscopolamine; 90 min, 37° C.; read-out: Ki against M1 receptor (Table 21, M1)
Chain of human M1 receptor (P11229 whole entry): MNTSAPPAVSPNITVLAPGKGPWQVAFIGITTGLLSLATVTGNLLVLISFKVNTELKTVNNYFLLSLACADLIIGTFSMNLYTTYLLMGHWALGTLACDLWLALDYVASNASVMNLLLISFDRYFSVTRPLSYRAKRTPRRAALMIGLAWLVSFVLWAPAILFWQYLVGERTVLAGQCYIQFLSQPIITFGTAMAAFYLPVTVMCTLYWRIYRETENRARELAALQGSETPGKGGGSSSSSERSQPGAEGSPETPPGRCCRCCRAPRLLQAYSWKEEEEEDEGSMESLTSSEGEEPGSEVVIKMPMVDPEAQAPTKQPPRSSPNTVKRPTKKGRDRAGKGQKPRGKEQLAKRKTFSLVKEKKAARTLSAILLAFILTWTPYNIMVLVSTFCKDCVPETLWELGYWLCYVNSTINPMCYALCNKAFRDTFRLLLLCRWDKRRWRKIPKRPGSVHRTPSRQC
Method in brief: as §1

human M5 receptor = human M5 receptor (Homo sapiens (Human), UniProt P08912); test: Radioligand (tritiated N-methylscopolamine) binding assay, M5; settings: CHO cell membranes expressing human M5; 1.5 nM tritiated N-methylscopolamine; 90 min, 37° C.; read-out: Ki against M5 receptor (Table 21, M5)
Chain of human M5 receptor (P08912 whole entry): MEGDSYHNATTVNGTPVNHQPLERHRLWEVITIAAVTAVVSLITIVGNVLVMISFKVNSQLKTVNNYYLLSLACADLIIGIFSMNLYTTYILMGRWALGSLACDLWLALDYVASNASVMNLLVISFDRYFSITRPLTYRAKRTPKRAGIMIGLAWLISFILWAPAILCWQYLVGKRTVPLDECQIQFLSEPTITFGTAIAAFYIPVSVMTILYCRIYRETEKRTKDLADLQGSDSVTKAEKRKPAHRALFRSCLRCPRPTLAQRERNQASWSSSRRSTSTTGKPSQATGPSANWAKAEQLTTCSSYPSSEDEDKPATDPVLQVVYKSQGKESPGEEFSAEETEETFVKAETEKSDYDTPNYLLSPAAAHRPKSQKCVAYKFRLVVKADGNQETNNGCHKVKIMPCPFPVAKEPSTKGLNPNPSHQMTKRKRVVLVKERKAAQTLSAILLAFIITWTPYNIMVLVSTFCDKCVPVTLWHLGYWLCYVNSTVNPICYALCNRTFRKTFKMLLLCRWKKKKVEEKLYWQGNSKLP
Method in brief: as §1

human M2 receptor = human M2 receptor (Homo sapiens (Human), UniProt P08172); test: Radioligand (tritiated N-methylscopolamine) binding assay, M2; settings: CHO cell membranes expressing human M2; 1.5 nM tritiated N-methylscopolamine; 90 min, 37° C.; read-out: Ki against M2 receptor (Table 21, M2)
Chain of human M2 receptor (P08172 whole entry): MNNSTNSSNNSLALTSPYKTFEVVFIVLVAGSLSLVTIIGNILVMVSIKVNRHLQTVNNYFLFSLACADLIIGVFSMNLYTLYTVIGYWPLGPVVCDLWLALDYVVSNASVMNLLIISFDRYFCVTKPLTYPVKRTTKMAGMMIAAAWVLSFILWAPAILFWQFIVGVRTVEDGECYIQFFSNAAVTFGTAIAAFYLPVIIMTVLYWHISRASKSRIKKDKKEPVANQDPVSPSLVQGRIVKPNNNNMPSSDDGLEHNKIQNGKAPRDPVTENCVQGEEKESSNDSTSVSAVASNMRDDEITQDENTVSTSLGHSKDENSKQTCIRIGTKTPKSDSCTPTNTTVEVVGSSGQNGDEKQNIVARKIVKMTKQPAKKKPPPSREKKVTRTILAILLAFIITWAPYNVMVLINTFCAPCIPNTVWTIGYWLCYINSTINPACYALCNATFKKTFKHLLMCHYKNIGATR
Method in brief: as §1

Row | Compound | Ki (human M4 receptor) | Ki (human M3 receptor) | Ki (human M1 receptor) | Ki (human M5 receptor) | Ki (human M2 receptor)
1 | Cc1nc(N2CCN(C(=O)NCCC3CCN(Cc4ccccc4)CC3)[C@H](C)C2)ccc1F [4-19, (2R)-N-[2-(1-benzylpiperidin-4-yl)ethyl]-4-(5-fluoro-6-methylpyridin-2-yl)-2-methylpiperazine-1-carboxamide] | < 10 nM | > 1000 nM | 100 to 1000 nM | > 1000 nM | 100 to 1000 nM
2 | C[C@@H]1CN(c2cnc(C(F)(F)F)nc2)C[C@@H](C)N1C(=O)NCCC1CCN(Cc2ccccc2)CC1 [26-6] | < 10 nM | 100 to 1000 nM | 10 to 100 nM | 100 to 1000 nM | 10 to 100 nM
3 | C[C@@H]1CN(c2nc(Cl)cc(C#N)n2)C[C@H](C)N1C(=O)NCCC1CCN(Cc2ccccc2)CC1 [4-11, (2S,6R)-N-[2-(1-benzylpiperidin-4-yl)ethyl]-4-(4-chloro-6-cyanopyrimidin-2-yl)-2,6-dimethylpiperazine-1-carboxamide] | < 10 nM | > 1000 nM | 100 to 1000 nM | > 1000 nM | 10 to 100 nM
4 | C[C@@H]1CN(c2ccc(OC(F)(F)F)c(C#N)c2)CCN1C(=O)NCC[C@H]1CCN(Cc2ccccc2)C1 [9-10, (2R)-N-{2-[(3S)-1-benzylpyrrolidin-3-yl]ethyl}-4-[3-cyano-4-(trifluoromethoxy)phenyl]-2-methylpiperazine-1-carboxamide] | < 10 nM | 100 to 1000 nM | 100 to 1000 nM | > 1000 nM | 100 to 1000 nM
5 | C[C@H]1CN(c2ncc(C(F)(F)F)cc2F)CCC1C(=O)NCCC1CCN(Cc2ccccc2)CC1 (stereo partly drawn) [10-81, (3R)-N-[2-(1-benzylpiperidin-4-yl)ethyl]-1-[3-fluoro-5-(trifluoromethyl)pyridin-2-yl]-3-methylpiperidine-4-carboxamide] | < 10 nM | 10 to 100 nM | 10 to 100 nM | 100 to 1000 nM | 10 to 100 nM
6 | C[C@@H]1CN(c2ccc(OC(F)(F)F)cn2)CCN1C(=O)NCCC1CCN(Cc2ccccc2)CC1 [3-13, (2R)-N-[2-(1-benzylpiperidin-4-yl)ethyl]-2-methyl-4-[5-(trifluoromethoxy)pyridin-2-yl]piperazine-1-carboxamide] | < 10 nM | > 1000 nM | 100 to 1000 nM | > 1000 nM | 100 to 1000 nM
7 | C[C@@H]1CN(c2cc(F)c(F)c(F)c2)CCN1C(=O)NCCC1CCN(Cc2ccccc2)CC1CO (stereo partly drawn) [3-17, (2R)-N-{2-[1-benzyl-3-(hydroxymethyl)piperidin-4-yl]ethyl}-2-methyl-4-(3,4,5-trifluorophenyl)piperazine-1-carboxamide] | < 10 nM | > 1000 nM | > 1000 nM | > 1000 nM | 100 to 1000 nM
8 | C[C@@H]1CN(c2cc(F)c(F)c(F)c2)CCN1C(=O)NC[C@@H](O)C1CCN(Cc2ccccc2)CC1 [3-22, (2R)-N-[(2S)-2-(1-benzylpiperidin-4-yl)-2-hydroxyethyl]-2-methyl-4-(3,4,5-trifluorophenyl)piperazine-1-carboxamide] | < 10 nM | > 1000 nM | > 1000 nM | > 1000 nM | 100 to 1000 nM
9 | C[C@@H]1CN(c2cc(F)c(C#N)cc2F)CCN1C(=O)NCCC1CCN(Cc2ccccc2)CC1 [22-10] | < 10 nM | > 1000 nM | > 1000 nM | > 1000 nM | 100 to 1000 nM
10 | C[C@@H]1CN(c2ncc(C(F)(F)F)c(N)n2)CCN1C(=O)NCCC1CCN(Cc2ccccc2)CC1 [5-29, (2R)-4-[4-amino-5-(trifluoromethyl)pyrimidin-2-yl]-N-[2-(1-benzylpiperidin-4-yl)ethyl]-2-methylpiperazine-1-carboxamide] | < 10 nM | > 1000 nM | > 1000 nM | > 1000 nM | 100 to 1000 nM
11 | O=C(NCCC1CCN(Cc2ccccc2)CC1)C1CCN(c2cccc(OC(F)(F)F)c2)CC1 [10-19, N-[2-(1-benzylpiperidin-4-yl)ethyl]-1-[3-(trifluoromethoxy)phenyl]piperidine-4-carboxamide] | < 10 nM | > 1000 nM | 100 to 1000 nM | > 1000 nM | 100 to 1000 nM
12 | C[C@@H]1CN(c2cc(F)c(F)c(F)c2)CCN1C(=O)NCCC1CCN(Cc2ccc(F)cc2)CC1 [6-4, (2R)-N-(2-{1-[(4-fluorophenyl)methyl]piperidin-4-yl}ethyl)-2-methyl-4-(3,4,5-trifluorophenyl)piperazine-1-carboxamide] | < 10 nM | > 1000 nM | 100 to 1000 nM | > 1000 nM | 100 to 1000 nM
13 | C[C@H]1CN(c2ccc(OC(F)(F)F)c(C#N)c2)CCN1C(=O)NCCC1CCN(Cc2ccccc2)CC1 [4-21, (2S)-N-[2-(1-benzylpiperidin-4-yl)ethyl]-4-[3-cyano-4-(trifluoromethoxy)phenyl]-2-methylpiperazine-1-carboxamide] | < 10 nM | 100 to 1000 nM | 100 to 1000 nM | > 1000 nM | 10 to 100 nM
14 | C[C@@H]1CN(c2ccc(C(F)(F)F)cn2)CCN1C(=O)NCCC1CCN(Cc2ccccc2)CC1 [3-14, (2R)-N-[2-(1-benzylpiperidin-4-yl)ethyl]-2-methyl-4-[5-(trifluoromethyl)pyridin-2-yl]piperazine-1-carboxamide] | < 10 nM | > 1000 nM | 100 to 1000 nM | > 1000 nM | 10 to 100 nM
15 | O=C(NCCC1CCN(Cc2ccccc2)CC1)C1CCN(c2ccc(F)c(F)c2)CC1 [10-21, N-[2-(1-benzylpiperidin-4-yl)ethyl]-1-(3,4-difluorophenyl)piperidine-4-carboxamide] | < 10 nM | > 1000 nM | > 1000 nM | > 1000 nM | 100 to 1000 nM
16 | C[C@@H]1CN(c2ncc(C(F)(F)F)cn2)CCN1C(=O)NCCC1CCN(Cc2ccccc2)CC1 [3-9, (2R)-N-[2-(1-benzylpiperidin-4-yl)ethyl]-2-methyl-4-[5-(trifluoromethyl)pyrimidin-2-yl]piperazine-1-carboxamide] | < 10 nM | 100 to 1000 nM | 100 to 1000 nM | > 1000 nM | 10 to 100 nM
17 | Cc1c(C(=O)NCCC2CCN(Cc3ccccc3)CC2)cnc2cc(-c3cc(F)cc(F)c3)nn12 [18-5] | < 10 nM | > 1000 nM | > 1000 nM | > 1000 nM | 100 to 1000 nM
18 | C[C@@H]1CN(c2ncc(C(F)(F)F)cn2)CCN1C(=O)NCCC1CCN(Cc2cccc(C#N)c2)CC1 [6-40, (2R)-N-(2-{1-[(3-cyanophenyl)methyl]piperidin-4-yl}ethyl)-2-methyl-4-[5-(trifluoromethyl)pyrimidin-2-yl]piperazine-1-carboxamide] | < 10 nM | 100 to 1000 nM | 100 to 1000 nM | > 1000 nM | 10 to 100 nM
19 | O=C(NCCC1CCN(Cc2ccccc2)CC1)C1CCN(c2ncc(C(F)(F)F)cc2Cl)CC1 [9-63, N-[2-(1-benzylpiperidin-4-yl)ethyl]-1-[3-chloro-5(trifluoromethyl)pyridin-2-yl]piperidine-4-carboxamide] | < 10 nM | 10 to 100 nM | 10 to 100 nM | 100 to 1000 nM | < 10 nM
20 | C[C@@H]1CN(c2cc(F)cc(C#N)c2)CCN1C(=O)NCCC1CCN(Cc2ccccc2)CC1 [3-11, (2R)-N-[2-(1-benzylpiperidin-4-yl)ethyl]-4-(3-cyano-5-fluorophenyl)-2-methylpiperazine-1-carboxamide] | < 10 nM | > 1000 nM | > 1000 nM | > 1000 nM | 100 to 1000 nM
21 | C[C@H]1CN(c2ncc(Cl)cn2)CCC1C(=O)NCCC1CCN(Cc2ccccc2)CC1 (stereo partly drawn) [20-3, (3R)-N-[2-(1-benzylpiperidin-4-yl)ethyl]-1-(5-chloropyrimidin-2-yl)-3-methylpiperidine-4-carboxamide] | < 10 nM | 100 to 1000 nM | 100 to 1000 nM | > 1000 nM | 100 to 1000 nM
22 | Cc1ccc(N2CCN(C(=O)NCCC3CCN(Cc4ccccc4)CC3)[C@H](C)C2)cc1F [4-13, (2R)-N-[2-(1-benzylpiperidin-4-yl)ethyl]-4-(3-fluoro-4-methylphenyl)-2-methylpiperazine-1-carboxamide] | < 10 nM | > 1000 nM | > 1000 nM | > 1000 nM | 100 to 1000 nM
23 | C[C@@H]1CN(c2ncc(C(F)(F)F)cn2)C[C@H](C)N1C(=O)NCCC1CCN(Cc2ccccc2)CC1 [5-27, (2R,6S)-N-[2-(1-benzylpiperidin-4-yl)ethyl]-2,6-dimethyl-4-[5-(trifluoromethyl)pyrimidin-2-yl]piperazine-1-carboxamide] | < 10 nM | > 1000 nM | 100 to 1000 nM | > 1000 nM | 100 to 1000 nM
24 | Cc1c(C(=O)NCCC2CCN(Cc3ccccc3)CC2)cnc2cc(-c3cccc(C(F)(F)F)c3)nn12 [17-1, N-[2-(1-benzylpiperidin-4-yl)ethyl]-7-methyl-2-[3-(trifluoromethyl)phenyl]pyrazolo[1,5-a]pyrimidine-6-carboxamide] | < 10 nM | > 1000 nM | > 1000 nM | > 1000 nM | 100 to 1000 nM
